Assay results taken from PubChem BioAssay (NCI).
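Method: 48-hour compound exposure of cells in 96-well plates, five concentrations, linear interpolation of endpoints. GI50 = concentration required for 50% inhibition of growth. TGI: concentration producing complete growth inhibition.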

Assays:
Test in all cases: NCI anticancer screen, dose series, 48 h
[1] = tested on: NCI/ADR-RES ovarian
[2] = tested on: U251 CNS
[3] = tested on: RXF 393 renal
[4] = tested on: SK-OV-3 ovarian
[5] = tested on: OVCAR-5 ovarian
[6] = tested on: UACC-62 melanoma
[7] = tested on: IGROV1 ovarian
[8] = tested on: ACHN renal
[9] = tested on: SR leukemia
[10] = tested on: K-562 leukemia
[11] = tested on: NCI-H23 lung
[12] = tested on: SF-539 CNS
[13] = tested on: RPMI-8226 leukemia
[14] = tested on: DU-145 prostate
[15] = tested on: KM12 colon
[16] = tested on: SK-MEL-5 melanoma
[17] = tested on: SW-620 colon
[18] = tested on: MALME-3M melanoma
[19] = tested on: CCRF-CEM leukemia
[20] = tested on: CAKI-1 renal
[21] = tested on: HCT-116 colon
[22] = tested on: MDA-MB-231 breast
[23] = tested on: SF-268 CNS
[24] = tested on: HL-60(TB) leukemia
[25] = tested on: MDA-MB-435
[26] = tested on: SNB-75 CNS
[27] = tested on: A498 renal
[28] = tested on: OVCAR-8 ovarian
[29] = tested on: NCI-H522 lung
[30] = tested on: NCI-H226 lung
[31] = tested on: OVCAR-3 ovarian
[32] = tested on: TK-10 renal
[33] = tested on: SNB-19 CNS
[34] = tested on: MOLT-4 leukemia
[35] = tested on: T-47D breast
[36] = tested on: SK-MEL-2 melanoma
[37] = tested on: COLO 205 colon
[38] = tested on: HOP-62 NSCLC
[39] = tested on: EKVX NSCLC
[40] = tested on: M14 melanoma
[41] = tested on: A549 NSCLC
[42] = tested on: OVCAR-4 ovarian
[43] = tested on: HS 578T breast
[44] = tested on: HCT-15 colon
[45] = tested on: MCF7 breast
[46] = tested on: BT-549 breast
[47] = tested on: NCI-H460 lung
[48] = tested on: HCC-2998 colon
[49] = tested on: PC-3 prostate
[50] = tested on: SK-MEL-28 melanoma
[51] = tested on: UACC-257 melanoma
[52] = tested on: 786-0 renal
[53] = tested on: HT29 colon
[54] = tested on: HOP-92 NSCLC
[55] = tested on: LOX IMVI melanoma
[56] = tested on: UO-31 renal
[57] = tested on: SN12C renal
[58] = tested on: SF-295 CNS
[59] = tested on: MDA-N

c1ccc2nc3c(cc2c1)Sc1cc2ccccc2[n+]2c1N3CC2
GI50 [1]: > 100 µM | TGI [1]: > 100 µM | GI50 [2]: 24 µM | TGI [2]: > 100 µM | GI50 [3]: 13.7 µM | TGI [3]: 54.9 µM | GI50 [4]: > 100 µM | TGI [4]: > 100 µM | GI50 [5]: > 100 µM | TGI [5]: > 100 µM | GI50 [6]: 13.5 µM | TGI [6]: 28.8 µM | GI50 [7]: 22.8 µM | TGI [7]: > 100 µM | GI50 [8]: > 100 µM | TGI [8]: > 100 µM | GI50 [9]: 13.5 µM | TGI [9]: > 100 µM | GI50 [10]: 14 µM | TGI [10]: > 100 µM | GI50 [11]: 21.9 µM | TGI [11]: > 100 µM | GI50 [12]: 35.9 µM | TGI [12]: > 100 µM | GI50 [13]: 15.6 µM | TGI [13]: > 100 µM | GI50 [14]: 53.9 µM | TGI [14]: > 100 µM | GI50 [15]: 11 µM | TGI [15]: 40.3 µM | GI50 [16]: 3.66 µM | TGI [16]: 20 µM | GI50 [17]: 32.5 µM | TGI [17]: > 100 µM | GI50 [18]: 4.17 µM | TGI [18]: 23.3 µM | GI50 [19]: 26.8 µM | TGI [19]: > 100 µM | GI50 [20]: 64.5 µM | TGI [20]: > 100 µM | GI50 [21]: 30.8 µM | TGI [21]: > 100 µM | GI50 [22]: 31.6 µM | TGI [22]: > 100 µM | GI50 [23]: 23.6 µM | TGI [23]: > 100 µM | GI50 [24]: 32.5 µM | TGI [24]: > 100 µM | GI50 [25]: 21.1 µM | TGI [25]: 65.7 µM | GI50 [26]: 26.9 µM | TGI [26]: > 100 µM | GI50 [27]: 34.1 µM | TGI [27]: > 100 µM | GI50 [28]: 25.3 µM | TGI [28]: > 100 µM | GI50 [29]: 26.7 µM | TGI [29]: > 100 µM | GI50 [30]: 45 µM | TGI [30]: > 100 µM | GI50 [31]: 21.2 µM | TGI [31]: > 100 µM | GI50 [32]: 36.4 µM | TGI [32]: > 100 µM | GI50 [33]: 19.7 µM | TGI [33]: 91.9 µM | GI50 [34]: 22.1 µM | TGI [34]: > 100 µM | GI50 [35]: 15 µM | TGI [35]: 64.9 µM | GI50 [36]: 17.6 µM | TGI [36]: 43.9 µM | GI50 [37]: 3.57 µM | TGI [37]: 25.5 µM | GI50 [38]: 20.8 µM | TGI [38]: 78.1 µM | GI50 [39]: 21 µM | TGI [39]: > 100 µM | GI50 [40]: 16.2 µM | TGI [40]: 45 µM | GI50 [41]: 11.9 µM | TGI [41]: > 100 µM | GI50 [42]: 24.7 µM | TGI [42]: > 100 µM | GI50 [43]: 18.3 µM | TGI [43]: 85.1 µM | GI50 [44]: > 100 µM | TGI [44]: > 100 µM | GI50 [45]: 8.67 µM | TGI [45]: > 100 µM | GI50 [46]: 19.1 µM | TGI [46]: > 100 µM | GI50 [47]: 20.3 µM | TGI [47]: 63.9 µM | GI50 [48]: 18.5 µM | TGI [48]: 64.3 µM | GI50 [49]: 27.4 µM | TGI [49]: > 100 µM | GI50 [50]: 20.8 µM | TGI [50]: 83.9 µM | GI50 [51]: 11.6 µM | TGI [51]: 34.8 µM | GI50 [52]: 43 µM | TGI [52]: > 100 µM | GI50 [53]: 33.8 µM | TGI [53]: > 100 µM | GI50 [54]: 27.9 µM | TGI [54]: > 100 µM | GI50 [55]: 41.3 µM | TGI [55]: > 100 µM | GI50 [56]: > 100 µM | TGI [56]: > 100 µM | GI50 [57]: 21.5 µM | TGI [57]: > 100 µM | GI50 [58]: 65.7 µM | TGI [58]: > 100 µM

CC(C)CC(NC(=O)C(CSc1ccc([N+](=O)[O-])cc1)Cc1ccccc1)C(=O)Nc1ccccc1 (centres undefined)
TGI [1]: > 100 µM | TGI [2]: > 100 µM | TGI [3]: > 100 µM | TGI [4]: > 100 µM | TGI [5]: > 100 µM | TGI [6]: > 100 µM | TGI [7]: > 100 µM | TGI [8]: > 100 µM | TGI [9]: > 100 µM | TGI [10]: > 100 µM | TGI [11]: > 100 µM | TGI [12]: > 100 µM | TGI [13]: > 100 µM | TGI [14]: > 100 µM | TGI [15]: > 100 µM | TGI [16]: > 100 µM | TGI [17]: > 100 µM | TGI [18]: 80.5 µM | TGI [19]: > 100 µM | TGI [20]: > 100 µM | TGI [21]: > 100 µM | TGI [22]: > 100 µM | TGI [24]: > 100 µM | TGI [25]: > 100 µM | TGI [26]: 65.1 µM | TGI [27]: > 100 µM | TGI [28]: > 100 µM | TGI [29]: > 100 µM | TGI [31]: > 100 µM | TGI [32]: > 100 µM | TGI [33]: > 100 µM | TGI [34]: > 100 µM | TGI [36]: > 100 µM | TGI [37]: > 100 µM | TGI [39]: > 100 µM | TGI [40]: > 100 µM | TGI [41]: > 100 µM | TGI [42]: > 100 µM | TGI [44]: > 100 µM | TGI [45]: > 100 µM | TGI [46]: 59.5 µM | TGI [59]: > 100 µM | TGI [47]: > 100 µM | TGI [48]: > 100 µM | TGI [49]: > 100 µM | TGI [50]: > 100 µM | TGI [51]: > 100 µM | TGI [52]: > 100 µM | TGI [54]: > 100 µM | TGI [55]: > 100 µM | TGI [56]: > 100 µM | TGI [57]: > 100 µM | TGI [58]: > 100 µM
